Test [1] relates to MHC II. The settings on record: IFNγ stimulation.
Test [2] deals with EGFR. As to the kind of experiment: EGFR levels in LLC CMTM4 KD cells after lipid raft depletion. The test is classed as cell-based, murine. Here is the method:
Flotillin-1 was used as a marker of lipid raft and vinculin was used as a maker of the non-raft fraction. […] FIGS. 8D and 8E show LLC CMTM4 KD cells were treated with MβCD and real-time PCR (8D) and western blot (8E) were performed to determine EGFR levels. *p<0.05. FIG. 8F show 293T cells were transfected with CMTM4 WT-mcherry (upper) or CMTM4 MT-mcherry (lower) with EGFR-EGFP and then, cells were treated with EGF for 1 hour. Representative confocal images are shown. FIG. 8G show RNAseq data showing Rab expression between control and CMTM4 KD LLC cells. FIGS. 8H and 8I show Rab expression in control and CMTM4 KD LLC cells were determined by qRT-PCR (H) and western blot (8I). FIGS. 8J, 8K, and 8L show 293T cells were transfected with CMTM4-EGFP and Rab4 (mCherry), Rab5 (mCherry), or Rab11 (mCherry), and then, cells were treated with EGF for 1 hour. Representative confocal images are shown. Pearson correlation coefficient (PCC) was measured from 20 individual cells. FIGS. 8M and 8N show EGFR-EGFR and Lamp-1 RFP were transfected to LLC control and CMTM4 KD cells. Confocal imaging was taken before (8M) and after (8N) treatment with EGF. Pearson correlation coefficient (PCC) was measured from 20 individual cells. *p<0.05, **p<0.01, ***P<0.001, ****P<0.0001. Scale bar: 3 μm. […]

Test [3] concerns the target T1, Tumor necrosis factor receptor-associated factor-6 (TRAF6) (in HCC827-CT cells) (human, UniProt Q9Y4K3 1-522).
T1 sequence (looked up): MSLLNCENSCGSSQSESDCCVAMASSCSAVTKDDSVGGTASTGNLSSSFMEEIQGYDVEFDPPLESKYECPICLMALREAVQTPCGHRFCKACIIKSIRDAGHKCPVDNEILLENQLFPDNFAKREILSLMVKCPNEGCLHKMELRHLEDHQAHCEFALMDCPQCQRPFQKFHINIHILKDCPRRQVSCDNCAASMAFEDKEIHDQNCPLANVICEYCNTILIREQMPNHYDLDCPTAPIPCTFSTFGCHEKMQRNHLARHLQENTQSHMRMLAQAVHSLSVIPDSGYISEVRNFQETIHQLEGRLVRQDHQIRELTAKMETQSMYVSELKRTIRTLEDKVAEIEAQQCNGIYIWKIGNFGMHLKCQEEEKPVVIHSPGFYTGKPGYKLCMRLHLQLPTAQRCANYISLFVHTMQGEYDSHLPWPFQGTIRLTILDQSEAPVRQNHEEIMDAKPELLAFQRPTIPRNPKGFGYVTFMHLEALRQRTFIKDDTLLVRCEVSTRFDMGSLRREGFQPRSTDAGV
In words: co-immunoprecipitation and western blot, HCC827-CT cells.

In the case of `CCN(CC)CCCC(C)Nc1ccnc2cc(Cl)ccc12` (stereo not shown) [chloroquine], the “higher levels of surface MHC class II in CMTM4 KO cells” value in test [1] is reported as “abolished”.
On to “methyl-beta-cyclodextrin [methyl-beta-cyclodextrin (MβCD)]”, for which the “EGFR mRNA level” value in test [2] (real-time PCR) is recorded as “increased”. Besides, the EGFR protein level result in test [2] (western blot) is reported as “increased”.

B1: CMTM6 (in HCC827-CT cells) (other, human, UniProt Q9NX76 1-183, looked up)
chain: MENGAVYSPTTEEDPGPARGPRSGLAAYFFMGRLPLLRRVLKGLQLLLSLLAFICEEVVSQCTLCGGLYFFEFVSCSAFLLSLLILIVYCTPFYERVDTTKVKSSDFYITLGTGCVFLLASIIFVSTHDRTSAEIAAIVFGFIASFMFLLDFITMLYEKRQESQLRKPENTTRAEALTEPLNA
As to B1, in test [3], the binding result was “no binding”.

The values above are taken from patent US20250313900A1, “COMPOSITIONS AND THERAPEUTIC AGENTS FOR MODULATING INFLAMMATORY RESPONSES ON BOTH TUMOR AND IMMUNE CELLS” (THE METHODIST HOSPITAL, priority 2022, published 2025).
